Laboratory results published in ChEMBL document CHEMBL5252520, “Inhibition of phospho-MurNAc-pentapeptide translocase (MraY) by nucleoside natural product antibiotics, bacteriophage ϕX174 lysis protein E, and cationic antibacterial peptides” (Bioorg Med Chem, 2016).
Values after ≈ are worked out from the molar mass of the structure shown. Each block holds one compound with its values, some of them ahead of it. Residues, ends and D or L forms follow the SMILES beside them.

Assays:
[1] = target: T1, Phospho-N-acetylmuramoyl-pentapeptide-transferase (Escherichia coli, UniProt E2QF15); assay: Inhibition of MraY in Escherichia coli
T1 sequence (E2QF15 whole entry): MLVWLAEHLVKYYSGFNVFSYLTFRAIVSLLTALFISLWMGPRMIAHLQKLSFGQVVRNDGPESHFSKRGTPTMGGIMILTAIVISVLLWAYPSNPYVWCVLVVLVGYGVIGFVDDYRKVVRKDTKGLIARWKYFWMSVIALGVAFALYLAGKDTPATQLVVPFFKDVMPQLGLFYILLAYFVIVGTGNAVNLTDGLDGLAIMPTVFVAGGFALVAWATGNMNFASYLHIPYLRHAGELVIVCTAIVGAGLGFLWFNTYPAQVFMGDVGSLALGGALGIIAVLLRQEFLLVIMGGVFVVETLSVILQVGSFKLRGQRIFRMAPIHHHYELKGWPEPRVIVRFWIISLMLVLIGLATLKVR

Staphylococcus aureus = assay: Antibacterial activity against Staphylococcus aureus ATCC 29213 assessed as bacterial growth inhibition; assay type: functional
[2] = Inhibition of bacterial MraY; design: species or system Bacteria
[3] = Inhibition of Campylobacter jejuni PgIC expressed in Escherichia coli by affinity chromatography
[4] = target: T2, Decaprenyl-phosphate N-acetylglucosaminephosphotransferase (Mycolicibacterium smegmatis (strain ATCC 700084 / mc(2)155) (Mycobacteriumsmegmatis), UniProt A0R211); assay: Inhibition of Mycobacterium smegmatis ATCC 607 WecA
T2 sequence (A0R211 whole entry): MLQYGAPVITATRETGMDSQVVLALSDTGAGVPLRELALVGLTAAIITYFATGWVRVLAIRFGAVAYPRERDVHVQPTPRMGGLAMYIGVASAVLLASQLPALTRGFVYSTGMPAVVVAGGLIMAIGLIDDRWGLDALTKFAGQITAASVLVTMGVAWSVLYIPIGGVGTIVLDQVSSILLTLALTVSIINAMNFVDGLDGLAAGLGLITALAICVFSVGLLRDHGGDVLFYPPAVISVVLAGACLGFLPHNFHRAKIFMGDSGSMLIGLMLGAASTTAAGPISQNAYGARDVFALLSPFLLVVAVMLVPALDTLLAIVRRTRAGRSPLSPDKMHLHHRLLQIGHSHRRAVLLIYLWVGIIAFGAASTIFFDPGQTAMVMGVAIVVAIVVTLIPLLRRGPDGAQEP

Escherichia coli = assay: Antibacterial activity against Escherichia coli assessed as inhibition of bacterial growth; assay type: functional
Pseudomonas aeruginosa [5] = assay: Antibacterial activity against Pseudomonas aeruginosa H103 assessed as reduction in bacterial growth; assay type: functional
Pseudomonas aeruginosa [6] = assay: Antibacterial activity against Pseudomonas aeruginosa H103 assessed as inhibition of bacterial growth; assay type: functional

- IC50 [1]: 0.8 µM
SMILES: CC[C@@H](C)[C@H](NC(=O)[C@H](CC(C)C)NC(=O)[C@H](CC(C)C)NC(=O)[C@H](CO)NC(=O)[C@@H]1CCCN1C(=O)[C@H](CC(C)C)NC(=O)[C@H](CC(C)C)NC(=O)[C@H](CC(C)C)NC(=O)[C@H](CO)NC(=O)[C@H](CC(C)C)NC(=O)[C@H](CC(C)C)NC(=O)[C@H](CC(C)C)NC(=O)[C@H](CC(C)C)NC(=O)[C@H](Cc1ccccc1)NC(=O)[C@H](C)NC(=O)[C@H](CC(C)C)NC(=O)[C@@H](NC(=O)[C@H](CC(=O)O)NC(=O)[C@H](Cc1c[nH]c2ccccc12)NC(=O)[C@H](CC(C)C)NC(=O)[C@@H](NC(=O)[C@H](Cc1c[nH]c2ccccc12)NC(=O)[C@H](CCCNC(=N)N)NC(=O)[C@@H](NC(=O)[C@@H](N)CCSC)C(C)C)[C@@H](C)O)[C@@H](C)O)C(=O)N[C@@H](CCSC)C(=O)N[C@@H](Cc1ccccc1)C(=O)N[C@H](C(=O)N1CCC[C@H]1C(=O)N[C@@H](CO)C(=O)N[C@H](C(=O)N[C@@H](Cc1ccccc1)C(=O)N[C@@H](CCCCN)C(=O)N[C@@H](CCCNC(=N)N)C(=O)N1CCC[C@H]1C(=O)N[C@H](C(=O)N[C@@H](CO)C(=O)O)C(C)C)[C@@H](C)O)[C@@H](C)CC

- MIC (Staphylococcus aureus): 30 µg/mL (≈ 41.9 µM)
- IC50 [2]: 590 µM
SMILES: CC(C)C[C@H](NC(=O)CNC(=O)[C@H](Cc1c[nH]c2ccccc12)NC(=O)[C@@H](N)CCCNC(=N)N)C(=O)N[C@@H](Cc1c[nH]c2ccccc12)C(=O)O (H-RWGLW-OH)

- IC50 [3]: 40 µM
SMILES: CSCC[C@H](NC(=O)N[C@@H](Cc1cccc(O)c1)C(=O)O)C(=O)N[C@@H](C(=O)N/C=C1\C[C@@H](O)[C@H](n2ccc(=O)[nH]c2=O)O1)[C@H](C)N(C)C(=O)[C@@H](N)Cc1cccc(O)c1

SMILES: CCCCc1ccc(NC(=O)C2=CCN(C)[C@@H]([C@H](O[C@@H]3O[C@H](CN)[C@@H](O)[C@H]3O)[C@H]3O[C@@H](n4ccc(=O)[nH]c4=O)[C@H](O)[C@@H]3O)C(=O)N2C)cc1
- IC50 [4]: 0.0581 µM

- MIC (Escherichia coli): 4 µg/mL (≈ 2.14 µM)
- MIC (Pseudomonas aeruginosa [5]): 31 µg/mL (≈ 16.6 µM)
- IC50 [2]: 40 µM
- MIC (Pseudomonas aeruginosa [6]): 31 µg/mL (≈ 16.6 µM)
SMILES: CC[C@H](C)[C@H](NC(=O)[C@H](Cc1c[nH]c2ccccc12)NC(=O)[C@@H](NC(=O)[C@@H](NC(=O)[C@H](CCCNC(=N)N)NC(=O)[C@H](Cc1c[nH]c2ccccc12)NC(=O)[C@H](Cc1c[nH]c2ccccc12)NC(=O)[C@@H](N)CCCNC(=N)N)[C@@H](C)CC)C(C)C)C(=O)N[C@@H](CCCCN)C(=O)N[C@@H](Cc1c[nH]c2ccccc12)C(=O)N[C@@H](Cc1c[nH]c2ccccc12)C(=O)N[C@@H](CCCNC(=N)N)C(=O)O (H-RWWRIVWIKWWR-OH)
